Assay [1] has as its target T1, recombinant human FLAP protein (Homo sapiens, UniProt P20292).
T1 construct: made in house; host or cells: Sf9 insect cells (100,000×g membrane pellet used)
T1 sequence (P20292 1-161): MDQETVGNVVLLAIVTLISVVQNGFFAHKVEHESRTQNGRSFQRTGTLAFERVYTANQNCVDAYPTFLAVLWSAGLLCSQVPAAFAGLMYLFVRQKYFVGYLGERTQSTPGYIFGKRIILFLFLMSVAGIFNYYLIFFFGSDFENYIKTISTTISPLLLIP
The assay can be described thus: FLAP binding assay (SPA, displacement of [125I]L-691,831). The settings on record: membranes of sf9 cells expressing recombinant human FLAP; [125I]L-691,831 probe; read-out: FLAP binding IC50. The method in brief: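 Membranes from sf9 cells expressing human FLAP in pH 7.5 Tris buffer (MgCl2, EDTA, PMSF). Non-specific binding defined with 10 μM cold L-691,831.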

For assay [2], the system named is synthesis of LTB4 in human whole blood. The assay can be described thus: Human whole blood assay (inhibition of LTB4 synthesis, calcimycin stimulated). The format is cell-based. The settings on record: heparinized human whole blood, calcimycin 20 μM, plasma LTB4. A digest of the protocol:
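Heparinized human whole blood preincubated with compound 15 min at 37 °C, then stimulated with calcimycin (20 μM final) for 30 min at 37 °C. Plasma LTB4 measured after low-speed centrifugation by antibody-based homogeneous time-resolved fluorescence.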

With `CC(C)C(C)(c1ccc(-c2cnc(N)nc2)cc1)c1noc(N2CCOCC2)n1` (stereo not shown) [Example 89, 5-(4-{3-methyl-2-[5-(morpholin-4-yl)-1,2,4-oxadiazol-3-yl]butan-2-yl}phenyl)pyrimidin-2-amine], the IC50 in assay [1] came to 0.013 µM; in assay [2], 0.27 µM.

`CC(C)C(C)(c1ccc(-c2cnc(N)nc2)cc1)c1noc(C(=O)N2CCOCC2)n1` (stereo not shown) [Example 90, (3-{2-[4-(2-aminopyrimidin-5-yl)phenyl]-3-methylbutan-2-yl}-1,2,4-oxadiazol-5-yl)(morpholin-4-yl)methanone]: the IC50 was found to be 0.063 µM in assay [1] and 1.5 µM in assay [2].

Turning to `CC(C)C(C)(c1ccc(-c2cnc(N)nc2)cc1)c1noc(C(=O)N2CCN(C)CC2)n1` (stereo not shown) [Example 91, (3-{2-[4-(2-aminopyrimidin-5-yl)phenyl]-3-methylbutan-2-yl}-1,2,4-oxadiazol-5-yl)(4-methylpiperazin-1-yl)methanone], the IC50 was determined as 0.054 µM in assay [1] and 1.3 µM in assay [2].

In the case of `CC(C)C(C)(c1ccc(-c2cnc(N)nc2)cc1)c1noc(C(C)(C)CC(=O)O)n1` (stereo not shown) [Example 92, 3-(3-{2-[4-(2-aminopyrimidin-5-yl)phenyl]-3-methylbutan-2-yl}-1,2,4-oxadiazol-5-yl)-3-methylbutanoic acid], the values for the IC50 in assay [1] and in assay [2] were 0.11 µM and greater than 5 µM, respectively.

Regarding `CC(C)C(C)(c1ccc(-c2cnc(N)nc2)cc1)c1noc(CC(C)(C)C(=O)O)n1` (stereo not shown) [Example 93, 3-(3-{2-[4-(2-aminopyrimidin-5-yl)phenyl]-3-methylbutan-2-yl}-1,2,4-oxadiazol-5-yl)-2,2-dimethylpropanoic acid], the IC50 in assay [1] was 0.24 µM; in assay [2], greater than 5 µM.

As to `CC(C)C(C)(c1ccc(-c2cnc(N)nc2)cc1)c1noc(CCC(=O)O)n1` (stereo not shown) [Example 94, 3-(3-{2-[4-(2-aminopyrimidin-5-yl)phenyl]-3-methylbutan-2-yl}-1,2,4-oxadiazol-5-yl)propanoic acid], the IC50 is 0.35 µM in assay [1] and greater than 5 µM in assay [2].

With `CC(C)C(C)(c1ccc(-c2cnc(N)nc2)cc1)c1noc(C2(C(=O)O)CC2)n1` (stereo not shown) [Example 95, 1-(3-{2-[4-(2-aminopyrimidin-5-yl)phenyl]-3-methylbutan-2-yl}-1,2,4-oxadiazol-5-yl)cyclopropanecarboxylic acid], the IC50 in assay [1] was 0.13 µM; in assay [2], greater than 5 µM.

With `CC(C)C(C)(c1ccc(-c2cnc(N)nc2)cc1)c1noc(N2CCN(C)CC2)n1` (stereo not shown) [Example 96, 5-(4-{3-methyl-2-[5-(4-methylpiperazin-1-yl)-1,2,4-oxadiazol-3-yl]butan-2-yl}phenyl)pyrimidin-2-amine], the IC50 amounted to 0.0075 µM in assay [1] and 0.15 µM in assay [2].

With `CN(C)C(=O)Cn1cc(-c2nc(C(C)(c3ccc(-c4cnc(N)nc4)cc3)C3CCC3)no2)cn1` (stereo not shown) [Example 97, 2-[4-(3-{1-[4-(2-aminopyrimidin-5-yl)phenyl]-1-cyclobutylethyl}-1,2,4-oxadiazol-5-yl)-1H-pyrazol-1-yl]-N,N-dimethylacetamide], the IC50 in assay [1] came out at 0.0088 µM; in assay [2] it was 0.17 µM.

Consider `CNC(=O)Cn1cc(-c2nc(C(C)(c3ccc(-c4cnc(N)nc4)cc3)C3CCC3)no2)cn1` (stereo not shown) [Example 98, 2-[4-(3-{1-[4-(2-aminopyrimidin-5-yl)phenyl]-1-cyclobutylethyl}-1,2,4-oxadiazol-5-yl)-1H-pyrazol-1-yl]-N-methylacetamide], for which the figures for the IC50 in assay [1] and in assay [2] were 0.012 µM and 0.57 µM, respectively.

`CC(c1ccc(-c2cnc(N)nc2)cc1)(c1noc(-c2cnn(C3COC3)c2)n1)C1CCC1` (stereo not shown) [Example 99, 5-[4-(1-cyclobutyl-1-{5-[1-(oxetan-3-yl)-1H-pyrazol-4-yl]-1,2,4-oxadiazol-3-yl}ethyl)phenyl]pyrimidin-2-amine]: the IC50 in assay [1] turned out to be 0.0039 µM; in assay [2], 0.2 µM.

For the compound `COCCn1cc(-c2nc([C@@](C)(c3ccc(-c4cnc(N)nc4)cc3)C3CCC3)no2)cn1` [Example 100, 5-{4-[(1R)-1-cyclobutyl-1-{5-[1-(2-methoxyethyl)-1H-pyrazol-4-yl]-1,2,4-oxadiazol-3-yl}ethyl]phenyl}pyrimidin-2-amine], the IC50 came to 0.0023 µM in assay [1] and 0.11 µM in assay [2].

Take `COCCn1cc(-c2nc([C@](C)(c3ccc(-c4cnc(N)nc4)cc3)C3CCC3)no2)cn1` [Example 101, 5-{4-[(1S)-1-cyclobutyl-1-{5-[1-(2-methoxyethyl)-1H-pyrazol-4-yl]-1,2,4-oxadiazol-3-yl}ethyl]phenyl}pyrimidin-2-amine]: the values for the IC50 in assay [1] and in assay [2] were 0.28 µM and greater than 5 µM, respectively.

In the case of `C[C@@](c1ccc(-c2cnc(N)nc2)cc1)(c1noc(-c2cnn(C3COC3)c2)n1)C1CCC1` [Example 102, 5-{4-[(1R)-1-cyclobutyl-1-{5-[1-(oxetan-3-yl)-1H-pyrazol-4-yl]-1,2,4-oxadiazol-3-yl}ethyl]phenyl}pyrimidin-2-amine], the IC50 in assay [1] worked out at 0.0016 µM; in assay [2] it was 0.051 µM.

`C[C@](c1ccc(-c2cnc(N)nc2)cc1)(c1noc(-c2cnn(C3COC3)c2)n1)C1CCC1` [Example 103, 5-{4-[(1S)-1-cyclobutyl-1-{5-[1-(oxetan-3-yl)-1H-pyrazol-4-yl]-1,2,4-oxadiazol-3-yl}ethyl]phenyl}pyrimidin-2-amine]: the IC50 stood at 0.13 µM in assay [1] and 2.7 µM in assay [2].

In the case of `CN(C)C(=O)Cn1cc(-c2nc([C@@](C)(c3ccc(-c4cnc(N)nc4)cc3)C3CCC3)no2)cn1` [Example 104, 2-[4-(3-{(1R)-1-[4-(2-aminopyrimidin-5-yl)phenyl]-1-cyclobutylethyl}-1,2,4-oxadiazol-5-yl)-1H-pyrazol-1-yl]-N,N-dimethylacetamide], the figures for the IC50 in assay [1] and in assay [2] were 0.0061 µM and 0.13 µM, respectively.

Consider `CN(C)C(=O)Cn1cc(-c2nc([C@](C)(c3ccc(-c4cnc(N)nc4)cc3)C3CCC3)no2)cn1` [Example 105, 2-[4-(3-{(1S)-1-[4-(2-aminopyrimidin-5-yl)phenyl]-1-cyclobutylethyl}-1,2,4-oxadiazol-5-yl)-1H-pyrazol-1-yl]-N,N-dimethylacetamide], for which the results for the IC50 in assay [1] and in assay [2] were 0.49 µM and greater than 5 µM, respectively.

`CC(C)C(C)(c1ccc(-c2cnc(N)nc2)cc1)c1noc(-c2cnn(CC(=O)N(C)C)c2)n1` (stereo not shown) [Example 106, 2-[4-(3-{2-[4-(2-aminopyrimidin-5-yl)phenyl]-3-methylbutan-2-yl}-1,2,4-oxadiazol-5-yl)-1H-pyrazol-1-yl]-N,N-dimethylacetamide]: the IC50 in assay [1] turned out to be 0.0048 µM; in assay [2], 0.076 µM.

Take `CC(C)[C@](C)(c1ccc(-c2cnc(N)nc2)cc1)c1noc(-c2cnn(CC(C)(C)O)c2)n1` [Example 107, 1-[4-(3-{(2R)-2-[4-(2-aminopyrimidin-5-yl)phenyl]-3-methylbutan-2-yl}-1,2,4-oxadiazol-5-yl)-1H-pyrazol-1-yl]-2-methylpropan-2-ol]: the half-maximal inhibitory concentration (IC50) in assay [1] stood at 0.00086 µM; in assay [2] it was 0.017 µM.

Regarding `CC(C)[C@@](C)(c1ccc(-c2cnc(N)nc2)cc1)c1noc(-c2cnn(CC(C)(C)O)c2)n1` [Example 108, 1-[4-(3-{(2S)-2-[4-(2-aminopyrimidin-5-yl)phenyl]-3-methylbutan-2-yl}-1,2,4-oxadiazol-5-yl)-1H-pyrazol-1-yl]-2-methylpropan-2-ol], the 50% inhibitory concentration (IC50) is 0.0087 µM in assay [1] and 0.32 µM in assay [2].

Take `CC(C)C(C)(c1ccc(-c2cnc(N)nc2)cc1)c1noc(C2CCN(C(=O)OC(C)(C)C)CC2)n1` (stereo not shown) [Example 109, 4-(3-{1-[4-(2-Amino-pyrimidin-5-yl)-phenyl]-1,2-dimethyl-propyl}-1,2,4-oxadiazol-5-yl)-piperidine-1-carboxylic acid tert-butyl ester]: the values for the IC50 in assay [1] and in assay [2] were 0.046 µM and 1.5 µM, respectively.

In the case of `CC(C)C(C)(c1ccc(-c2cnc(N)nc2)cc1)c1noc(C2CCNCC2)n1` (stereo not shown) [Example 110, 5-(4-{3-methyl-2-[5-(piperidin-4-yl)-1,2,4-oxadiazol-3-yl]butan-2-yl}phenyl)pyrimidin-2-amine], the IC50 turned out to be 0.19 µM in assay [1] and 2.8 µM in assay [2].

Take `CC(C)C(C)(c1ccc(-c2cnc(N)nc2)cc1)c1noc(C2CCCN(C(=O)OC(C)(C)C)C2)n1` (stereo not shown) [Example 111, tert-butyl 3-(3-{2-[4-(2-aminopyrimidin-5-yl)phenyl]-3-methylbutan-2-yl}-1,2,4-oxadiazol-5-yl)piperidine-1-carboxylate]: the results for the IC50 in assay [1] and in assay [2] were 0.015 µM and 2.9 µM, respectively.

Regarding `CC(C)C(C)(c1ccc(-c2cnc(N)nc2)cc1)c1noc(C2CCCCN2C(=O)OC(C)(C)C)n1` (stereo not shown) [Example 112, tert-butyl 2-(3-{2-[4-(2-aminopyrimidin-5-yl)phenyl]-3-methylbutan-2-yl}-1,2,4-oxadiazol-5-yl)piperidine-1-carboxylate], the IC50 in assay [1] was 0.19 µM; in assay [2] it was greater than 5 µM.

For the compound `CC(C)C(C)(c1ccc(-c2cnc(N)nc2)cc1)c1noc(C2CCCNC2)n1` (stereo not shown) [Example 113, 5-(4-{3-methyl-2-[5-(piperidin-3-yl)-1,2,4-oxadiazol-3-yl]butan-2-yl}phenyl)pyrimidin-2-amine], the IC50 stood at 0.066 µM in assay [1] and 3.1 µM in assay [2].

As for `CC(C)C(C)(c1ccc(-c2cnc(N)nc2)cc1)c1noc(C2CCCCN2)n1` (stereo not shown) [Example 114, 5-(4-{3-methyl-2-[5-(piperidin-2-yl)-1,2,4-oxadiazol-3-yl]butan-2-yl}phenyl)pyrimidin-2-amine], the IC50 was 0.021 µM in assay [1] and 1.1 µM in assay [2].

In general, IC50 refers to the midpoint of a concentration-inhibition curve.

Source of the values: US8658661B2, “Oxadiazole inhibitors of leukotriene production” (Boehringer Ingelheim International GmbH, priority 2010, dated 2014).
